Source: ChEMBL document CHEMBL1130732, “Homologated aza analogs of arabinose as antimycobacterial agents” (1998)
In brackets after ≈: the same amount, converted by molar mass. Activity calls are given as the source filed them. The calls are words filed in the database; no cut-off is given here.

Tests used:
[1] = system: Mycobacterium tuberculosis; test: Minimum inhibitory concentration against Mycobacterium tuberculosis H37Ra; […]; assay type: functional
[2] = system: Mycobacterium tuberculosis; test: Minimum bactericidal concentration against Mycobacterium tuberculosis H37Ra; assay type: functional
[3] = system: Mycobacterium tuberculosis; test: Minimum inhibitory concentration against Mycobacterium tuberculosis H37Ra; assay type: functional
[4] = system: Mycobacterium tuberculosis; test: Percent inhibition of compound against Mycobacterium tuberculosis H37Ra at 12.5 ug/mL concentration in BACTEC assay; assay type: functional
Mycobacterium avium [5] = test: Anti-MAC activity against Mycobacterium avium macrophage; I means inactive in macrophages; assay type: functional, organism-based
[6] = system: Mycobacterium tuberculosis; test: Minimum inhibitory concentration against Mycobacterium tuberculosis H37Ra; partial inhibition at 128 ug/mL; assay type: functional
[7] = system: Mycobacterium tuberculosis; test: Minimum inhibitory concentration against Mycobacterium tuberculosis H37Ra; value ranges from 32-128 ug/mL; assay type: functional
Mycobacterium avium [8] = test: Anti-MAC activity against Mycobacterium avium macrophage; cytotoxic to macrophages; assay type: functional, organism-based
Mycobacterium avium [9] = test: Anti-MAC activity against Mycobacterium avium macrophage was determined; assay type: functional
[10] = system: Mycobacterium tuberculosis; test: Minimum inhibitory concentration against Mycobacterium tuberculosis H37Ra; value ranges from […] ug/mL; assay type: functional
[11] = system: Mycobacterium tuberculosis; test: Minimum inhibitory concentration against Mycobacterium tuberculosis H37Ra; value ranges from 16-64 ug/mL; assay type: functional
[12] = system: Mycobacterium tuberculosis; test: Minimum bactericidal concentration against Mycobacterium tuberculosis H37Ra; value ranges from 64->128 ug/mL; assay type: functional
[13] = system: Mycobacterium tuberculosis; test: Minimum inhibitory concentration against Mycobacterium tuberculosis H37Ra; value ranges from >12.8-<=128 ug/mL; assay type: functional
[14] = system: Mycobacterium tuberculosis; test: Minimum inhibitory concentration against Mycobacterium tuberculosis H37Ra; value ranges from 16-32 ug/mL; assay type: functional

In the case of `CCCCCCCCCCCC[S+]([O-])CC1NC(CO)C(O)C1O` (stereo not given), the MIC [1] is reported as 32 µg/mL (≈ 88 µM) and the MBC [2] is reported as ≥ 128 µg/mL.
`[O-][S+](CC1NC(CO)C(O)C1O)c1ccccc1` (stereo not given) was tested, and the MIC [3] was > 128 µg/mL, the inhibition at 12.5 µg/mL [4] was 18% and the Activity (Mycobacterium avium [5]) was “inactive”.
In the case of `OCC1NC(CSc2ccc3ccccc3c2)C(O)C1O` (stereo not given), the inhibition at 12.5 µg/mL [4] is reported as 18% and the MIC [6] is reported as > 128 µg/mL.
In the case of `N#Cc1ccc(SCC2NC(CO)C(O)C2O)cc1` (stereo not given), the MIC [3] is reported as > 128 µg/mL and the inhibition at 12.5 µg/mL [4] is reported as 5%.
For `CCCCCCCCCCSCC1NC(CO)C(O)C1O` (stereo not given), the MIC [7] was 32 µg/mL (≈ 100 µM) and the MBC [2] was ≥ 128 µg/mL.
In the case of `COc1ccc(SCC2NC(CO)C(O)C2O)cc1` (stereo not given), the MIC [3] is reported as > 128 µg/mL.
For `CCCCCCCCCCCCS(=O)(=O)CC1NC(CO)C(O)C1O` (stereo not given), the MIC [7] was 32 µg/mL (≈ 84.3 µM), the Activity (Mycobacterium avium [8]) was “Cytotoxic” and the MBC [2] was ≥ 128 µg/mL.
`OC[C@H]1O[C@@H](CSc2ccccc2)[C@H](O)[C@@H]1O` was tested, and the MIC [3] was > 128 µg/mL and the Activity (Mycobacterium avium [9]) was >64 µg/mL.
For `O=S(=O)(CC1NC(CO)C(O)C1O)c1ccccc1` (stereo not given), the MIC [3] was > 128 µg/mL, the inhibition at 12.5 µg/mL [4] was 6% and the Activity (Mycobacterium avium [5]) was “inactive”.
`COc1ccccc1SCC1NC(CO)C(O)C1O` (stereo not given) was tested, and the MIC [3] was > 128 µg/mL.
For `OCC1NC(CSCc2ccccc2)C(O)C1O` (stereo not given), the MIC [3] was > 128 µg/mL.
In the case of `OCC1NC(CSc2ccncc2)C(O)C1O` (stereo not given), the MIC [3] is reported as > 128 µg/mL and the inhibition at 12.5 µg/mL [4] is reported as 6%.
`CC(C)=CCC/C(C)=C\CSCC1NC(CO)C(O)C1O` (stereo not given) was tested, and the MIC [10] was 64 µg/mL (≈ 203 µM) and the Activity (Mycobacterium avium [8]) was “Cytotoxic”.
In the case of `OCC1NC(CSc2ccccc2)C(O)C1O` (stereo not given), the MIC [3] is reported as > 128 µg/mL, the inhibition at 12.5 µg/mL [4] is reported as 0% and the Activity (Mycobacterium avium [9]) is reported as 4 µg/mL.
Work on `CCCCCCCCCCCCCCCCSCC1NC(CO)C(O)C1O` (stereo not given) yielded an MIC [11] of 16 µg/mL (≈ 39.6 µM) and an MBC [12] of 64 µg/mL (≈ 159 µM).
With `CCCCCCCCCCCCS(=O)(=O)C[C@H]1NC(CO)C(O)C1O` (stereo not given in full) the MIC [13] was > 12.8 µg/mL.
`CCCCCCCCCCCCSCC1NC(CO)C(O)C1O` (stereo not given) was tested, and the MIC [14] was 16 µg/mL (≈ 46 µM), the Activity (Mycobacterium avium [8]) was “Cytotoxic” and the MBC [12] was 64 µg/mL (≈ 184 µM).
